Source: patent US20050214316A1 (priority 2003, published 2005)
Like-named read-outs stand apart in the source and are kept apart here. Marks after values point to notes of the source that are not given here.

Assays:
[1] = test system: commercial broilers (trials 1 and 2), SPF broilers (trial 3); assay type: in vivo, chicken; details: all three trials, vs saline controls
[2] = test system: 2 week-old chickens; assay type: in vivo, chicken; details: for CBH-2 = (skin thickness, PHA-P injected foot) − (skin thickness, PSS injected foot) / CBH-1 = (skin thickness at 12 h post-injection, left foot) − (pre-injection skin thickness, left foot): 2 week-old chickens, mean ± standard deviation, n = 4; for CBH-1 = (skin thickness at 12 h post-injection, left foot) − (pre-injection skin thickness, left foot): PHA-P
[3] = test system: commercial broilers (trials 1 and 2), SPF broilers (trial 3); details: in vivo
[4] = test system: commercial broilers (trials 1 and 2), SPF broilers (trial 3); details: in vivo; remark: listed apart in the source
[5] = test system: chickens; design: species or system chicken; details: in vivo
[6] = test system: commercial broilers (trials 1 and 2), SPF broilers (trial 3); details: in vivo; remark: listed apart in the source
[7] = test system: commercial broilers (trials 1 and 2), SPF broilers (trial 3); details: 7 dpi

For O=P1(N(CCCl)CCCl)NCCCO1 (stereo not shown) [CP, Cyclophosphamide monohydrate], the bursa size [1] was “significantly smaller”, the “CBH-2 = (skin thickness, PHA-P injected foot) − (skin thickness, PSS injected foot)” value ([2]; Trial 1, IBDV strain Variant E) was “.73 ± .01” and the “CBH-1 = (skin thickness at 12 h post-injection, left foot) − (pre-injection skin thickness, left foot)” value (from here on “CBH-1 =”) ([2]; Trial 1, IBDV strain Variant E) was “.67 ± .07”. For the same compound, the “CBH-2 = (skin thickness, PHA-P injected foot) − (skin thickness, PSS injected foot)” value ([2]; Trial 2, IBDV strain STC) was “.69 ± .2”, the “CBH-1 =” value ([2]; Trial 2, IBDV strain STC) was “.69 ± .18” and the “CBH-2 = (skin thickness, PHA-P injected foot) − (skin thickness, PSS injected foot)” value ([2]; Trial 3, IBDV strain STC) was “.31 ± .07”. The “CBH-1 =” value ([2]; Trial 3, IBDV strain STC) was “.34 ± .06”, the CBH response ([2]; vs saline control group) was “small reduction” and the clinical appearance [3] was “decreased feathering and appeared weak”. For the same compound, the bursal microscopic lesions [4] was “marked lymphocytic depletion and atrophy of the bursa”, the “humoral immune response to NDV vaccination” value [5] was “significantly reduced” and the “Proventriculus score (severity of proventricular lesions)” value [6] was 1.00^a. For the same compound, the thymus size [7] was “smaller than the rest of the groups”.
